Laboratory results: patent publication US20210323949A1, “COMPOUNDS AND METHODS FOR INHIBITION OF MULTIPLE MYELOMA” (FLORIDA ATLANTIC UNIVERSITY BOARD OF TRUSTEES, priority 2018, published 2021)

Columns and labels:
[1] = test system: multiple myeloma cell lines; assay: Viability/proliferation of multiple myeloma cell lines; type: cell-based; conditions: over 48 h
[2] = test system: 5TGM1 luciferase expressing multiple myeloma cells; assay: 5TGM1 multiple myeloma mouse model; type: in vivo, Mice (C57BL/6 KalwRij)
Procedure: FIG. 5A is a set of images and FIG. 5B and FIG. 5C are graphs showing the efficacy of RF-036 (MMP-13i) for the treatment of multiple myeloma. FIG. 5A, 5B: Mice (C57BL/6 KalwRij) were inoculated with 5TGM1 luciferase expressing multiple myeloma cells (1×10^6) and after 10 days randomized into vehicle (n=7) or MMP-13i (n=6) groups. Mice were treated daily with RF-036 at 2 mg/kg via intraperitoneal injection. Bioluminescence (FIG. 5A) was quantitated every 3-4 days (FIG. 5B). […] Asterisks denote statistical significance.
FIG. 7 is a Kaplan-Meier curve of overall survival time of 5TGM1 multiple myeloma bearing mice treated with RF-036 (MMP-13i) (n=6; 2 mg/kg daily) or vehicle control (n=7). The median survival time for the RF-036 group was 46 days compared to 41 for the vehicle control group.
The overall survival time of 5TGM1 multiple myeloma bearing mice treated with RF-036 (MMP-13i) (n=6; 2 mg/kg daily) was compared to vehicle control (n=7) (FIG. 7). The median survival time for the RF-036 group was 46 days compared to 41 for the vehicle control group.

[3] = test system: bone marrow-derived macrophages (BMMs); conditions: bone marrow co-cultures/BMMs with M-CSF and RANKL, counted after 5 days
[4] = test system: MSCs and monocytic cells (RAW 267); assay: Proliferation of stromal cells of the bone microenvironment
[5] = test system: mature osteoclasts; assay: Inhibitor added to mature osteoclasts, TRAP-positive osteoclasts counted; conditions: TRAP positive osteoclasts counted after 5 days

**Q.** With `CNC(=O)[C@@H](NC(=O)c1ccc(-c2ccc(CSc3nc4c(c(=O)[nH]3)CCC4)c(F)c2)o1)C(C)C` [RF-036] as the compound, how does the “impact on viability of multiple myeloma cell lines” value [1] read?
**A.** up to 50%

**Q.** What about the “IgG2b in serum (readout for tumor burden)” value ([2]; 2 mg/kg daily i.p., day 28, vs vehicle) of the same compound?
**A.** significant differences between the vehicle and RF-036 groups

**Q.** What about the “growth of multiple myeloma in vivo (bioluminescence)” value ([2]; 2 mg/kg daily, intraperitoneal injection) of the same compound?
**A.** significantly reduces the growth of multiple myeloma

**Q.** What about the median survival time ([2]; 5TGM1 bearing mice, 2 mg/kg daily, n=6) of the same compound?
**A.** 46 days

**Q.** And the overall survival ([2]; multiple myeloma bearing mice, 2 mg/kg daily)?
**A.** increases overall survival

**Q.** And the “osteoclast formation (number of TRAP-positive osteoclasts per well)” value [3]?
**A.** significantly mitigated osteoclast formation

**Q.** What about the “effects on stromal cells (MSCs and monocytes)” value [4] of the same compound?
**A.** minimal effects

**Q.** What about the “cell viability of mature osteoclasts” value [5] of the same compound?
**A.** no effect on cell viability
